Experiments:
KRasG12C [1] = target: T1, KRasG12C (Homo sapiens, UniProt P01116, G12C); test: KRasG12C functional assay (HTRF nucleotide exchange / Raf RBD binding); format: biochemical; conditions: GDP loaded biotinylated KRasG12C, samples incubated 4 hrs, FRET readout; single experiment or average of two or more
T1 construct: biotin (biotinylated); made in house
Description: KRasG12C Functional Assay
All enzyme and substrate solutions were prepared in assay buffer containing 20 mM HEPES (pH 7.5), 5 mM MgCl2, 150 mM NaCl, and 0.01% Tween 20. […] In a separate mix 20 nM GST-Raf Ras binding domain (GST-Raf RBD, purified in house) and 4 μg/ml anti-GST XL665 antibody (Cisbio) was prepared in assay buffer containing 50 mM Potassium Fluoride and 0.05 mg/ml BSA and equilibrated for 4 hours before adding 0.6 μM Guanosine 5′-[γ-thio]triphosphate (GTPγS, Sigma) and 0.08 μM SOS (purified in house). 5 μl of the GST-RAF RBD mix was then dispensed into each well of the assay plate. […] This is detected simultaneously via the specific binding interaction between active GTPγS KRas^G12C with GST-Raf RBD which brings the europium and XL665 into close proximity enabling an increased FRET signal to be detected on a Pherastar (BMG) plate reader equipped with the HTRF filter module. […] IC50 values were calculated from normalised dose-response response FRET data curve fitted in Genedata screener (Basel, Switzerland).

KRasG12C [2] = target: T1, KRasG12C; test: KRasG12C Mass Spectrometry adducting assay; format: binding; conditions: 10 μM test compound, 4 μM KRasG12C, 4 hours reaction; single experiment or average of two or more
Description: KRasG12C Mass Spectrometry Adducting Assay
Enzyme solutions were prepared in assay buffer containing 20 mM HEPES (pH 7.5), 5 mM MgCl2, and 150 mM NaCl. 4 μM GDP loaded biotinylated KRas^G12C was prepared in assay buffer and 50 μl added into each well of a 96 well polypropylene assay plate (Greiner, #651201) containing 500 nl of 1 mM test compounds (final concentration 10 μM), this was allowed to react for 4 hours before the addition of 50 μl 1% Formic acid to quench the reaction. The plate was sealed before reading on a Xevo G2 QTOF (Waters) and Acquity LC system (Waters). 10 μl of sample was injected onto a Xbridge BEH300; C4; 3.5 um; 2.1×50 mm column (Waters) running a 3 minute gradient. Blank samples were run in between each test sample.
Data was analysed in Mass Lynx software (Waters), the Total ion count (TIC) trace was used and the eluted protein peak data combined. Using the combined spectrum the data was deconvoluted using MaxEnt1 method. The peak area for apo-protein KRas^G12C (APO) and KRAS+relative cmpd mass (adduct) were measured, and a percentage adduct was calculated using the following calculation: Percent adduct=100*(area of adduct peak/(sum of APO+adduct peaks)

| IC50 (KRasG12C [1]) [nM] | KRasG12C M.S. Binding Mean adduct % (KRasG12C [2]) [%] | SMILES |
| --- | --- | --- |
| 135 | 81 | C=CC(=O)N1CCN2c3c(nnc4cc(-c5c(O)cccc5F)c(Cl)cc34)OC[C@H]2C1 [Example 10, 1-((4aR)-11-Chloro-10-(2-fluoro-6-hydroxyphenyl)-1,2,4a,5-tetrahydropyrazino[1′,2′:4,5][1,4]oxazino[2,3-c]cinnolin-3(4H)-yl)prop-2-en-1-one] |
| 41 | 95 | C=CC(=O)N1CCN2c3c(cnc4c(F)c(-c5c(C)ccc6c5C(=O)NC6)c(Cl)cc34)OC[C@H]2C1 (single isomer, unassigned) [Compound 86] |
| 20 | 95 | C=CC(=O)N1CCN2c3c(cnc4c(F)c(-c5c(O)cccc5F)c(Cl)cc34)OC[C@H]2C1 (single isomer, unassigned) [Example 7] |
| > 9200 | 3 | C=CC(=O)N1CCN2c3c(cnc4c(F)c(-c5c(O)cccc5F)c(Cl)cc34)N(C)C(=O)C2C1 (single isomer, unassigned) [Example 19, 3-acryloyl-11-chloro-9-fluoro-10-(2-fluoro-6-hydroxyphenyl)-6-methyl-2,3,4,4a-tetrahydro-1H-pyrazino[1′,2′:4,5]pyrazino[2,3-c]quinolin-5(6H)-one] |
| 132 | 91 | C=CC(=O)N1CCN2c3c(cnc4cc(-c5c(O)cccc5F)c(Cl)cc34)N(C)C[C@H]2C1 [Example 14, 1-((4aS)-11-chloro-10-(2-fluoro-6-hydroxyphenyl)-6-methyl-1,2,4,4a,5,6-hexahydro-3H-pyrazino[1′,2′:4,5]pyrazino[2,3-c]quinolin-3-yl)prop-2-en-1-one] |
| 9500 | 15 | C=CC(=O)N1C[C@@H]2C(=O)N(C)c3cnc4c(F)c(-c5c(O)cccc5F)c(Cl)cc4c3N2C[C@H]1C (single isomer, unassigned) [Example 21] |
| 630 | 51 | C=CC(=O)N1CCN2c3c(cnc4c(F)c(-c5c(O)cccc5F)c(Cl)cc34)N(C)C(=O)C2C1 (single isomer, unassigned) [Example 20, 3-acryloyl-11-chloro-9-fluoro-10-(2-fluoro-6-hydroxyphenyl)-6-methyl-2,3,4,4a-tetrahydro-1H-pyrazino[1′,2′:4,5]pyrazino[2,3-c]quinolin-5(6H)-one] |
| 47 | 95 | C=CC(=O)N1CCN2c3c(cnc4cc(-c5c(C)ccc6[nH]cnc56)c(Cl)cc34)OC[C@H]2C1 (single isomer, unassigned) [Compound 65] |
| 14 | 96 | C=CC(=O)N1CCN2c3c(cnc4c(F)c(-c5c(O)cccc5F)c(Cl)cc34)NC(=O)[C@H]2C1 (single isomer, unassigned) [Compound 88] |
| 341 | 74 | CN(C)C/C=C/C(=O)N1CCN2c3c(cnc4cc(-c5c(O)cccc5F)c(Cl)cc34)OC[C@H]2C1 [Example 9, (2E)-1-[(4aR)-11-Chloro-10-(2-fluoro-6-hydroxyphenyl)-1,2,4a,5-tetrahydropyrazino[1′,2′:4,5][1,4]oxazino[2,3-c]quinolin-3(4H)-yl]-4-(dimethylamino)but-2-en-1-one] |
| 28100 |  | C[C@@H]1CN2c3c(cnc4c(F)c(-c5c(O)cccc5F)c(Cl)cc34)OC[C@H]2CN1C(=O)/C=C/CN(C)C (single isomer, unassigned) [Compound 36] |
| 37600 |  | C=CC(=O)N1CCN2c3c(cnc4c(F)c(-c5c(C)cccc5O)c(Cl)cc34)N(C)C(=O)[C@H]2C1 (single isomer, unassigned) [Compound 53] |
| 20 |  | C=CC(=O)N1CCN2c3c(cnc4c(F)c(-c5c(O)ccc(F)c5F)c(Cl)cc34)N(C)C(=O)[C@H]2C1 (single isomer, unassigned) [Compound 58] |
| 8500 |  | C=CC(=O)N1CCN2c3c(cnc4c(F)c(-c5c(O)cccc5F)c(Cl)cc34)OC[C@H]2C1 (single isomer, unassigned) [Example 8] |
| 14700 |  | C=CC(=O)N1CCN2c3c(cnc4c(Cl)c(-c5c(O)cccc5F)c(F)cc34)N(C)C(=O)[C@H]2C1 (single isomer, unassigned) [Compound 80] |
| > 100000 |  | C=CC(=O)N1CCN2c3c(cnc4c(C)c(-c5c(O)cccc5F)c(C)cc34)N(C)C(=O)[C@H]2C1 (single isomer, unassigned) [Compound 43] |
| 4 |  | C=CC(=O)N1C[C@@H]2C(=O)Nc3cnc4c(F)c(-c5c(O)cccc5F)c(Cl)cc4c3N2C[C@H]1C (single isomer, unassigned) [Compound 31] |

The remaining lines, values behind:

| SMILES | IC50 (KRasG12C [1]) [nM] | KRasG12C M.S. Binding Mean adduct % (KRasG12C [2]) [%] |
| --- | --- | --- |
| C=CC(=O)N1CCN2c3c(cnc4cc(-c5c(C)ccc6cc[nH]c(=O)c56)c(Cl)cc34)OC[C@H]2C1 (single isomer, unassigned) [Compound 69] | 2700 | 12 |
| C=CC(=O)N1CCN2c3c(cnc4cc(-c5c(C)ccc6[nH]cnc56)c(Cl)cc34)OC[C@H]2C1 (single isomer, unassigned) [Compound 66] | 654 | 25 |
| C=CC(=O)N1CCN2c3c(cnc4cc(-c5c(O)cccc5F)c(Cl)cc34)NC[C@H]2C1 [Example 13, 1-((4aS)-11-Chloro-10-(2-fluoro-6-hydroxyphenyl)-1,2,4,4a,5,6-hexahydro-3H-pyrazino[1′,2′:4,5]pyrazino[2,3-c]quinolin-3-yl)prop-2-en-1-one] | 387 | 86 |
| C=CC(=O)N1CCN2c3c(cnc4cc(-c5c(O)cccc5F)c(Cl)cc34)OC[C@H]2C1 (single isomer, unassigned) [Example 2] | 281 | 87 |
| C=CC(=O)N1CCN2c3c(cnc4cc(-c5c(C)ccc6cc[nH]c(=O)c56)c(Cl)cc34)OC[C@H]2C1 (single isomer, unassigned) [Compound 70] | 49 | 94 |
| C=CC(=O)N1CCN2c3c(cnc4cc(-c5c(O)cccc5F)c(Cl)cc34)N(C)C(=O)[C@H]2C1 [Example 15, (4aR)-3-Acryloyl-11-chloro-10-(2-fluoro-6-hydroxyphenyl)-6-methyl-2,3,4,4a-tetrahydro-1H-pyrazino[1′,2′:4,5]pyrazino[2,3-c]quinolin-5(6H)-one] | 145 | 100 |
| C=CC(=O)N1CCN2c3c(cnc4cc(-c5c(O)cccc5F)c(Cl)cc34)OC[C@H]2C1 (single isomer, unassigned) [Example 1] | 186 | 96 |
| C=CC(=O)N1CCN2c3c(cnc4cc(-c5c(F)ccc6cc[nH]c(=O)c56)c(Cl)cc34)OC[C@H]2C1 (single isomer, unassigned) [Compound 45] | 26 | 96 |
| C=CC(=O)N1CCN2c3c(cnc4cc(-c5c(C)ccc6[nH]c(=O)n(C)c56)c(Cl)cc34)OC[C@H]2C1 (single isomer, unassigned) [Compound 67] | 47 | 97 |
| C=CC(=O)N1CCN2c3c(cnc4cc(-c5c(C)ccc6[nH]c(=O)[nH]c56)c(Cl)cc34)OC[C@H]2C1 (single isomer, unassigned) [Compound 71] | 47 | 94 |
| C=CC(=O)N1CCN2c3c(cnc4cc(-c5c(O)cccc5F)c(Cl)cc34)N(C)C(=O)[C@@H]2C1 [Example 16, (4aS)-3-Acryloyl-11-chloro-10-(2-fluoro-6-hydroxyphenyl)-6-methyl-2,3,4,4a-tetrahydro-1H-pyrazino[1′,2′:4,5]pyrazino[2,3-c]quinolin-5(6H)-one] | 2700 | 18 |
| C=CC(=O)N1CCN2c3c(cnc4cc(-c5c(C)ccc6[nH]ncc56)c(Cl)cc34)OC[C@H]2C1 (single isomer, unassigned) [Example 3] | 81 | 93 |
| C=CC(=O)N1CCN2c3c(cnc4c(C)c(-c5c(O)cccc5F)c(C)nc34)N(C)C(=O)[C@H]2C1 (single isomer, unassigned) [Compound 91] | 35200 |  |
| C=CC(=O)N1CCN2c3c(cnc4cc(-c5c(C)ccc6[nH]ncc56)c(Cl)cc34)OC[C@H]2C1 (single isomer, unassigned) [Example 4] | 1700 |  |
| C=CC(=O)N1CCN2c3c(cnc4c(OC)c(-c5c(O)cccc5F)c(Cl)cc34)OC[C@H]2C1 (single isomer, unassigned) [Compound 23] | 4200 |  |
